Source: US20180340947A1, “INVOLVEMENT OF THE BUFO[…] THE DIAGNOSIS AND TREATMENT OF POST-TRAUMATIC STRESS DISORDER (PTSD)” (priority 2017, published 2018)

Tests used:
blood/brain barrier = settings: including disruption of the blood/brain barrier; cited from earlier work
[1] = in vitro; cited from earlier work
[2] = tested on: rodent brain contusion model; assay: Rodent brain contusion model; assay type: in vivo; settings: given 1 hour after the insult
Description: MBG is elevated in other syndromes such as preeclampsia and traumatic brain injury. It has been shown that the administration of the antagonist of MBG, resibufagenin (RBG), is therapeutically effective. […] RBG antagonizes MBG activity and may be an effective treatment for hypertension, ARDS, traumatic brain injury, and preeclampsia. Certain embodiments are directed to treating a patient having elevated levels of MBG by administering an MBG antagonist or anti-MBG agent. In certain aspects the anti-MBG agent is resibufagenin (RBG).

[3] = tested on: traumatic brain injured animals; assay: Urinary MBG excretion in sham and traumatic brain injured animals; assay type: in vivo
Description: There are estimated to be between 300,000 to 350,000 veterans of the Middle East conflicts who currently suffer from PTSD related to wartime service. However, there are no proven methods to diagnose and stage the results of both physical and psychological trauma leading to PTSD, nor are there successful preventative or treatment methods. The interest in these military-associated problems has been accelerated by their potential application also to concussion in civilian life, especially to amateur, collegiate, and professional sports. Thus far, no solution has been enunciated nor has been proven (Meier and Ivory, Jul. 3, 2015, The New York Times). […] 114. […] It has been determined that a circulating cardiac glycoside (or “cardiotonic steroid”) called marinobufagenin (MBG) (FIG. 1), acts as both an indicator and initiator of the inflammatory process involved in TBI (FIG. 1) (Shapiro et al., The American Society for Clinical Pharmacology and Therapeutics, Dallas, Tex., Mar. 2-5, 2011. ASCPT Annual Meeting Program Booklet, p. 78; Puschett et al., Medical Research Archives 2015, ISSN 2375-1924; Oliver et al., J Experimental Neuroscience 2015, 9:67-72). […]

[4] = tested on: preeclampsia in animal models; settings: cited from earlier work
[5] = tested on: GFAP-labeled astrocytes in cortex after impact acceleration injury; assay: GFAP immuno-fluorescence of brain after impact acceleration injury (IAI); assay type: in vivo; settings: RBG at 1 hour after IAI
Method: FIGS. 2A-2C. Micrographs of GFAP (glial fibrillary acidic protein) immuno-fluorescence. GFAP antibody labels the intermediate filaments of most astrocytes in the brain. In the sham animals (FIG. 2A), a normal distribution of GFAP-labeled astrocytes is seen. At 24 hours after an impact acceleration injury (IAI; FIG. 2B), a noticeable scar is observed (arrows) in layers 2 and 3 of the cortex. There is also a patchy loss of GFAP-labeled astrocytes throughout cortex and the vasculature (arrowheads) appears damaged. The loss of GFAP immunoreactivity and the appearance of astrocyte hypertrophy are indicative of a neuroinflammatory response to injury. […] The RBG treatment also reduces the decrease in GFAP immunoreactivity and a greater proportion of GFAP-labeled astrocytes have a normal, rather than hypertrophied appearance.

| Compound | Vascular leak (blood/brain barrier) | Vasoconstrictor action [1] | Tissue injury [2] | Urinary MBG excretion ([3]; TBI + RBG group, N = 10, sham 592.8 ± 79.3, TBI 1340.9 ± 308.5, P TBI vs. TBI + RBG = 0.02) | Antagonism of the effects of MBG ([3]; animal model of TBI (FIG. 2, Table 1)) | Preeclampsia [4] | Glial scar ([5]; IAI+RBG animals) | Alterations after IAI (glial scar, loss of GFAP immunoreactivity, astrocyte hypertrophy) ([5]; micrographs at 24 hours after IAI) |
| --- | --- | --- | --- | --- | --- | --- | --- | --- |
| C[C@]12CC[C@H](O)C[C@@]1(O)CC[C@@H]1[C@@H]2CC[C@]2(C)[C@@H](c3ccc(=O)oc3)C[C@H]3O[C@]132 [MBG, marinobufagenin] | cause vascular leak | acts in vitro as a vasoconstrictor | – | – | – | – | – | – |
| C[C@]12CC[C@H](O)C[C@H]1CC[C@@H]1[C@@H]2CC[C@]2(C)[C@@H](c3ccc(=O)oc3)C[C@H]3O[C@]132 [RBG, resibufogenin] | – | – | amelioration of tissue injury | 475.3 ± 56.1 | antagonizes the effects of MBG | prevents preeclampsia | A glial scar was not observed | most of these alterations are ameliorated |
